Test results published in PubChem BioAssay (NCI).
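Protocol summary: plate cells (96-well), add compound at 5 concentrations, incubate 48 h, interpolate endpoints linearly. The concentration for 50% growth inhibition is given as GI50. TGI denotes the concentration required for complete inhibition of growth.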

Tests used:
Assay in all cases: inhibition of tumour cell growth, NCI panel, 48 h
LOX IMVI melanoma = tested on: LOX IMVI melanoma
HL-60(TB) leukemia = tested on: HL-60(TB) leukemia
HCT-15 colon = tested on: HCT-15 colon
NCI-H23 lung = tested on: NCI-H23 lung
SK-MEL-28 melanoma = tested on: SK-MEL-28 melanoma
ACHN renal = tested on: ACHN renal
A498 renal = tested on: A498 renal
IGROV1 ovarian = tested on: IGROV1 ovarian
786-0 renal = tested on: 786-0 renal
SW-620 colon = tested on: SW-620 colon

Row | SMILES | GI50 (LOX IMVI melanoma) | TGI (LOX IMVI melanoma) | GI50 (HL-60(TB) leukemia) | TGI (HL-60(TB) leukemia) | GI50 (HCT-15 colon) | TGI (HCT-15 colon) | GI50 (NCI-H23 lung) | TGI (NCI-H23 lung) | GI50 (SK-MEL-28 melanoma) | TGI (SK-MEL-28 melanoma) | GI50 (ACHN renal) | TGI (ACHN renal) | GI50 (A498 renal) | TGI (A498 renal) | GI50 (IGROV1 ovarian) | TGI (IGROV1 ovarian) | GI50 (786-0 renal) | TGI (786-0 renal) | GI50 (SW-620 colon) | TGI (SW-620 colon)
1 | CC(=O)OC1CCC2(C)C(=CCC3C4CC(CN5CC5)C(=O)C4(C)CCC32)C1 (stereo not drawn) | 6.58 µM | 18.2 µM | 4.12 µM | 16.8 µM | 2.27 µM | 5.62 µM | 14 µM | 30 µM | 13.5 µM | 27.3 µM | 4.17 µM | 15.7 µM | 11.4 µM | 24.9 µM | 4.23 µM | 15.2 µM | 7.91 µM | 20.9 µM | 3.17 µM | 13.3 µM
2 | Cc1[nH]n(C(=O)c2ccc(Cl)cc2)c(=O)c1/C=C1\C(O)=CC(=O)c2ccccc21 |  | > 100 µM |  | > 100 µM |  |  |  | > 100 µM |  | > 100 µM |  | > 100 µM |  | > 100 µM |  | > 100 µM |  | > 100 µM |  | > 100 µM
3 | COC(=O)C1=C(C)N(NC(=O)Nc2ccccc2)C2(N)N(NC(=O)Nc3ccccc3)C(C)=C(C(=O)OC)C12C(=O)OC (stereo not drawn) |  | > 100 µM |  |  |  | > 100 µM |  | > 100 µM |  | > 100 µM |  | > 100 µM |  | > 100 µM |  | 55.5 µM |  | > 100 µM |  | > 100 µM
4 | COc1ccc(-c2ccc(/C=N/n3c(COc4ccc(Cl)c(C)c4)nn(CN4CCOCC4)c3=S)o2)c([N+](=O)[O-])c1 |  |  | 24.1 µM | 50.9 µM | 30.7 µM | > 100 µM | 20.2 µM | 51.6 µM | 20.5 µM | 53.7 µM | 39.1 µM | > 100 µM | 12.4 µM | 25.7 µM | 40.3 µM | > 100 µM | 32.5 µM | > 100 µM | 19.9 µM | 48.9 µM
5 | CCCCCCCCCCCCCCCC(=O)NCC(OCC)OCC |  | > 100 µM |  | > 100 µM |  | > 100 µM |  | > 100 µM |  | > 100 µM |  | > 100 µM |  |  |  | > 100 µM |  | > 100 µM |  | > 100 µM
6 | CC(C)=NO.CC(C)=NO.CC(C)=NO.CC(C)=NO.[Ti] | > 100 µM | > 100 µM | > 100 µM | > 100 µM | > 100 µM | > 100 µM |  |  | > 100 µM | > 100 µM | > 100 µM | > 100 µM |  |  | > 100 µM | > 100 µM | > 100 µM | > 100 µM | > 100 µM | > 100 µM
7 | CCCCc1c2c(nc3c1CC/C(=C\c1ccccc1)C3=O)CCCC2 |  | 3.48 µM |  | 10.3 µM |  | 12.3 µM |  | 17.7 µM |  | 9.52 µM |  | 25.9 µM |  |  |  | 15.2 µM |  | 5.64 µM |  | 5.32 µM
8 | O=C(/C=C/N1CCN(c2cccc(Cl)c2)CC1)c1ccc(Cl)cc1 | 32.3 µM | 96.9 µM |  |  | 31 µM | > 100 µM | 39 µM | > 100 µM | 39.9 µM | 91.2 µM | 44.9 µM | > 100 µM | 21.8 µM | 48.1 µM |  |  | 33.9 µM | > 100 µM | 30 µM | 99.3 µM
9 | O=C(c1ccccc1)c1ccc(N2C(=O)C3C4c5ccccc5C(/C=C/C(=O)c5ccccn5)(c5ccccc54)C3C2=O)cc1 (stereo not drawn) | 1.56 µM | 3.51 µM | 1.9 µM | 28.1 µM | 1.69 µM | 4.4 µM | 2.05 µM | 5.09 µM |  |  | 2.07 µM | 4.64 µM | 2.19 µM | 5.8 µM | 1.86 µM | 4.48 µM | 2.55 µM | 6.85 µM | 2.82 µM | > 100 µM
10 | C=CCCC1(CCP(=O)(c2ccccc2)c2ccccc2)OCCO1 |  | > 100 µM |  | > 100 µM |  | > 100 µM |  | > 100 µM |  | > 100 µM |  | > 100 µM |  |  |  | > 100 µM |  | > 100 µM |  | > 100 µM
11 | Cc1cc2c(=O)cc(-c3ccncc3)oc2c(C(=O)O)c1C |  | > 100 µM |  | > 100 µM |  | > 100 µM |  | > 100 µM |  | > 100 µM |  | > 100 µM |  |  |  | > 100 µM |  | > 100 µM |  | > 100 µM
12 | NC1CC(n2ccc(=O)[nH]c2=O)OC1C(O)CO (stereo not drawn) |  | > 100 µM |  | > 100 µM |  | > 100 µM |  | > 100 µM |  | > 100 µM |  | > 100 µM |  |  |  | > 100 µM |  | > 100 µM |  | > 100 µM
13 | CC(C)C12CCC3(CCC4C(C)(C(=O)O)CCCC4(C)C3C1)C(CN)C2 (stereo not drawn) |  | 34.7 µM |  |  |  | > 100 µM |  | 72.1 µM |  | > 100 µM |  | > 100 µM |  | 98.4 µM |  | > 100 µM |  | 54.4 µM |  | > 100 µM
14 | O=C(Nc1ccccc1)Oc1ccccc1C1CCCCC1 |  | 26.8 µM |  | 35.2 µM |  | 40.9 µM |  | 47.1 µM |  | 58.1 µM |  |  |  | > 100 µM |  | > 100 µM |  | 53.2 µM |  | 72.5 µM
15 | CN(C)c1ccc(/C=C2\Cc3ccccc3C2=O)cc1Br |  |  |  |  |  | > 100 µM |  | > 100 µM |  | > 100 µM |  | > 100 µM |  | > 100 µM |  | > 100 µM |  | > 100 µM |  | > 100 µM
16 | CCOC(=O)C1C(=O)C(=O)N2CCc3c([nH]c4ccccc34)C12 (stereo not drawn) |  |  |  | > 100 µM |  | > 100 µM |  | > 100 µM |  | > 100 µM |  |  |  | > 100 µM |  | > 100 µM |  | > 100 µM |  | > 100 µM
17 | O=NNc1nc(-c2ccccn2)nc2ccccc12 |  |  |  | > 100 µM |  | 14.7 µM |  | > 100 µM |  | > 100 µM |  | 42.5 µM |  | > 100 µM |  | > 100 µM |  | 39.9 µM |  | 27.7 µM
18 | Cn1ncc2c(c1=O)Nc1ccccc1S2(=O)=O |  | > 100 µM |  |  |  | > 100 µM |  | > 100 µM |  | > 100 µM |  | > 100 µM |  | > 100 µM |  | > 100 µM |  | 75.3 µM |  | 32.4 µM
19 | CCOC(=O)/C(=C/c1ccc[nH]1)P(=O)(OCC)OCC |  | > 100 µM |  | > 100 µM |  |  |  | > 100 µM |  | > 100 µM |  | > 100 µM |  |  |  |  |  | > 100 µM |  | > 100 µM
20 | CC(=O)Nc1ccc(C(=O)NN2C(=O)CSC2c2ccccc2)cc1 (stereo not drawn) |  |  |  |  |  | > 100 µM |  | > 100 µM |  | > 100 µM |  | > 100 µM |  | > 100 µM |  | > 100 µM |  | > 100 µM |  | > 100 µM
